The results in this text go back to patent publication US20230235036A1, “ACVR1 (ALK2) RECEPTOR INHIBITION TO TREAT NEUROLOGICAL DISEASES” (The J. David Gladstone Institutes, a testamentary trust …, priority 2020, published 2023).

One series concerns NOD-MOG35-55 EAE mice. In words: Progressive NOD-MOG35-55 EAE, therapeutic treatment. It counts as in vivo, mouse.
Series [1] concerns NG2-CreER™:Rosa^tdTomato/+ MOG35-55-EAE mice. The conditions noted are these: vs saline.
The nature of a further series: Water solubility. The format is physicochemical.
A further series deals with PLP-EAE. Nature of the series: In vivo PLP-EAE.
In another series the test system is primary rat OPCs. Nature of the series: OPC-X-screen: OPC differentiation to MBP+ OLs or GFAP+ astrocytes in presence of fibrinogen. The format is cell-based. To be noted: for cell-fate switch of OPCs to GFAP+ cells by fibrinogen: fibrinogen-treated OPCs, clemastine 1 μM; for cell-fate switch of OPCs to GFAP+ cells by fibrinogen / OPC differentiation to mature MBP+ OLs under extrinsic inhibition by fibrinogen: DMH1 1 μM; for OPC differentiation to mature MBP+ OLs under extrinsic inhibition by fibrinogen: myelin-promoting compound screen, fibrinogen 1.5 mg/ml, benztropine, clemastine, quetiapine, miconazole, (±)U-50488 1 μM, clobetasol 5 μM, XAV-939 0.1 μM.

Series [2] concerns BMP signaling (P-SMAD1/5, ID2) in primary rat OPCs. Nature of the series: Immunoblot of phospho-SMAD1/5 and ID2 in fibrinogen-treated OPCs. The format is cell-based. On the procedure:
Cells or tissue were lysed in RIPA lysis buffer (Thermo Fisher Scientific) supplemented with protease/phosphatase inhibitor cocktails (Calbiochem) and lysates were cleared by centrifuging at 13,000×g for 15 minutes at 4° C. Equal amounts of protein were loaded in […] bis-tris gels (Thermo Fisher Scientific) and analyzed by western blotting. Bands were visualized with HRP-conjugated secondary antibodies (Cell Signaling Technology). Densitometry was performed using ImageJ Software (NIH) with values for each band normalized to GAPDH loading controls from the same membrane. Primary antibodies were: Id2 (1:1000, rabbit monoclonal, #M213, CalBioreagents); phospho-Smad1/5 (1:1000, rabbit monoclonal, #9516, Cell Signaling Technology); GAPDH (1:1000, rabbit monoclonal, #2118, Cell Signaling Technology)
A general note: Immunoblotting shows a protein as a band on a membrane.

The mark [3] stands for this setting: in vivo 2P imaging at chronic EAE.
Setting [4] is: LDN-212854 dose response 5 μM to 2 nM, fibrinogen 2.5 mg/ml, 3 days.
The mark [5] stands for this setting: fibrinogen alone vs control, OPC-X assay.

“Also recorded” adds a separate entry of the source. Where two headings read alike, the source gives them in different places.

Consider `c1cc(-c2cnn3cc(-c4ccc(N5CCNCC5)cc4)cnc23)c2cccnc2c1` [LDN-212854], for which, in the series with NOD-MOG35-55 EAE mice (30 days treatment, vs saline), the “demyelination in spinal cord” value was “reduced” and the “fibrinogen deposition in spinal cord” value is given as “reduced”. For the same molecule, the clinical scores result with NOD-MOG35-55 EAE mice (treated for 30 days, vs saline) was “significantly improved”. Moreover, the “group mean of maximum clinical scores” value with NOD-MOG35-55 EAE mice (treated for 30 days, maximum scores from the last 20 days of treatment, five-point scale) amounted to 1.75. Also, in series [1] (6 mg/kg twice daily for 14 days starting at peak disease), the clinical scores entry is “significantly improved”. The “ID2 expression in NG2 cells in the EAE white matter” value in series [1] (14 day treatment) was “decreased”. In series [1] (14 days treatment), the “demyelination in spinal cord” value is on record as “reduced” and the “fibrinogen deposition in spinal cord” value is on record as “reduced”. Further, in series [1] (setting [3]), the “myelin damage (myelin circularity)” value is “markedly reduced” and the “perivascular NG2 clusters” value is reported as “markedly reduced”. In addition, in the series “Water solubility”, the water solubility entry is reported as “water soluble; also recorded: water-soluble”. Besides, in the series on PLP-EAE, the clinical scores entry is listed as “improved” and the “spinal cord Id2 protein levels” value was “reduced”. Moreover, in the series on primary rat OPCs (setting [4]), the “formation of GFAP+ astrocytes from fibrinogen-treated OPCs” value is “blocked the formation of GFAP+ astrocytes” and the “mature OL (MBP+) differentiation from fibrinogen-treated OPCs” value is reported as “enhanced formation of mature oligodendrocytes; also recorded: restored mature OL differentiation”.

With `CN1CCC[C@@H]1CCO[C@](C)(c1ccccc1)c1ccc(Cl)cc1` [clemastine], the “fibrinogen-induced expression of BMP target protein ID2” value in series [2] was “did not block”. For the same molecule, the “fibrinogen-induced phosphorylation of SMAD1/5” value in series [2] was “did not inhibit”; in series [2] (listed as Clemastine) it was “did not block”. In addition, in the series with primary rat OPCs (clemastine dose-response, fibrinogen 2.5 mg/ml, differentiation media without T3 or growth factors, 3 days), the “OPC differentiation to mature OLs in the presence of fibrinogen” value is reported as “did not enhance”. Further, the “cell-fate switch of OPCs to GFAP+ cells by fibrinogen” value in the series on primary rat OPCs (3 days) was “did not inhibit SMAD1/5 phosphorylation, a key pathway downstream of BMP receptor activation, or rescue”. In addition, the “number of MBP+ cells in control conditions” value in the series with primary rat OPCs (no fibrinogen, differentiation media without T3 or growth factors, 3 days) is recorded as “increased”.

`Oc1nc(-c2ccc(C(F)(F)F)cc2)nc2c1CSCC2` [XAV-939]: the “OPC differentiation to mature MBP+ OLs under extrinsic inhibition by fibrinogen” value in the series with primary rat OPCs (3 days) is listed as “did not overcome extrinsic inhibition of OPC differentiation by fibrinogen”.

For the molecule `CN1[C@@H]2CC[C@H]1C[C@@H](OC(c1ccccc1)c1ccccc1)C2` [benztropine], the “OPC differentiation to mature MBP+ OLs under extrinsic inhibition by fibrinogen” value with primary rat OPCs (3 days) is “did not overcome extrinsic inhibition of OPC differentiation by fibrinogen”.

`Clc1ccc(COC(Cn2ccnc2)c2ccc(Cl)cc2Cl)c(Cl)c1` (stereo not drawn) [miconazole]: the “OPC differentiation to mature MBP+ OLs under extrinsic inhibition by fibrinogen” value in the series on primary rat OPCs (3 days) was “did not overcome extrinsic inhibition of OPC differentiation by fibrinogen”.

As for `OCCOCCN1CCN(C2=Nc3ccccc3Sc3ccccc32)CC1` [quetiapine], the “OPC differentiation to mature MBP+ OLs under extrinsic inhibition by fibrinogen” value with primary rat OPCs (3 days) was “did not overcome extrinsic inhibition of OPC differentiation by fibrinogen”.

Take `CC(C)Oc1ccc(-c2cnc3c(-c4ccnc5ccccc45)cnn3c2)cc1` [DMH1]: in series [2], the “fibrinogen-induced expression of BMP target protein ID2” value is given as “blocked” and the “fibrinogen-induced phosphorylation of SMAD1/5” value is reported as “blocked”. Also, in the series “Water solubility”, the water solubility result was “not water-soluble”. In the series with primary rat OPCs (3 days), the “cell-fate switch of OPCs to GFAP+ cells by fibrinogen” value is recorded as “abolished” and the “OPC differentiation to mature MBP+ OLs under extrinsic inhibition by fibrinogen” value was “restored OPC differentiation to mature OLs to control levels”.

fibrinogen: in the series on primary rat OPCs (setting [5]), the “decrease of MBP+ mature OLs as compared to controls” value was around 60% and the “increase of GFAP+ astrocyte-like cells as compared to controls” value was around 60%.

In the case of `C[C@H]1C[C@H]2[C@@H]3CCC4=CC(=O)C=C[C@]4(C)[C@@]3(F)[C@@H](O)C[C@]2(C)[C@@]1(O)C(=O)CCl` [clobetasol], in the series on primary rat OPCs (3 days), the “OPC differentiation to mature MBP+ OLs under extrinsic inhibition by fibrinogen” value is recorded as “did not overcome extrinsic inhibition of OPC differentiation by fibrinogen”.
